Experimental findings from patent US8034799B2, “Preventing and/or treating cardiovascular disease and/or associated heart failure” (Philera New Zealand Limited, priority 2002, dated 2011) are described below.

In data set [1] the test system is diabetic (STZ) and nondiabetic male Wistar rats. The source says: Nondiabetic animals received an equivalent volume of saline.
All animals were fasted overnight prior to surgery but continued to have ad libitum access to deionized water. […] The femoral artery and vein were cannulated with a solid-state blood pressure transducer (Mikrotip™ 1.4F, Millar Instruments, Texas, USA) and a saline filled PE 50 catheter respectively. The ureters were exposed via a midline abdominal incision, cannulated using polyethylene catheters (external diameter 0.9 mm, internal diameter 0.5 mm) and the wound sutured closed. The trachea was cannulated and the animal ventilated at 70-80 breaths·min^−1 with air supplemented with O2 (Pressure Controlled Ventilator, Kent Scientific, Connecticut, USA). The respiratory rate and end-tidal pressure (10-15 cm H2O) were adjusted to maintain end-tidal CO2 at 35-40 mm Hg (SC-300 CO2 Monitor, Pryon Corporation, Wisconsin, USA). Body temperature was maintained at 37° C. throughout surgery and the experiment by a heating pad. Estimated fluid loss was replaced with intravenous administration of 154 mmol·l^−1 NaCl solution at a rate of 5 ml·kg^−1·h^−1.
(§1) Following surgery and a 20 min stabilization period, the experimental protocol was started. Trientine was administered intravenously over 60 s in hourly doses of increasing concentration (0.1, 1.0, 10 and 100 mg·kg^−1 in 75 μl saline followed by 125 μl saline flush). Control animals received an equivalent volume of saline. Urine was collected in 15 min aliquots throughout the experiment in pre-weighed polyethylene epindorph tubes. At the end of the experiment a terminal blood sample was taken by cardiac puncture and the separated serum stored at −80° C. until future analysis. Hearts were removed through a rapid mid-sternal thoracotomy and processed as described below.
Mean arterial pressure (MAP), heart rate (HR, derived from the MAP waveform) oxygen saturation (Nonin 8600V Pulse Oximeter, Nonin Medical Inc., Minnesota, USA) and core body temperature, were all continuously monitored throughout the experiment using a PowerLab/16s data acquisition module (AD Instruments, Australia).

Data set [2] has the same test system. The note with it: for Cu content of heart tissue / Fe content of heart tissue: trientine treated. As to the method: as §1
Cu, Fe and Zn in tissue digests were also determined at Hill Laboratories (Hamilton, New Zealand) using either a PE Sciex Elan-6000 or PE Sciex Elan-6100 DRC ICP-MS.
Heart: Following removal from the animal, the heart was cleaned of excess tissue, rinsed in buffer to remove excess blood, blotted dry and a wet ventricular weight recorded. Using titanium instruments a segment of left ventricular muscle was dissected and placed in a pre-weighed 5.0 ml polystyrene tube. The sample was freeze-dried overnight to constant weight before 0.45 ml of 69% Aristar grade HNO3 was added. The sample tube was heated in a water bath at 65° C. for 60 minutes. The sample was brought to 4.5 ml with Milli-Q H2O. The resulting solution was diluted 2:1 in order to reduce the HNO3 concentration below the maximum permitted for ICP-MS analysis.

In data set [3] the test system is STZ diabetic and normal Wistar rats. The following applies: for Heart weight / Heart weight (g)/BW (g) / Left Ventricular wall thickness / Left Ventricular wall thickness per BW: mean ± SD.
Where [4] appears, read: STZ/D7 (diabetic, trientine weeks 7-13).
Setting [5] is: Sham/D7 (non-diabetic, trientine weeks 7-13).

Where two headings read alike, the source gives them in different places.

Consider `NCCNCCNCCN` [trientine, N,N′-Bis(2-aminoethyl)-1,2-ethanedi-amine], for which, in data set [1] (after acute administration, 0.1-100 mg·kg^−1 i.v.), the adverse cardiovascular effects result is “no adverse cardiovascular effects”. For the same molecule, the “body temperature and oxygen saturation” value in data set [1] (all animals throughout the experiment) was “remained stable”. Moreover, the “time for MAP to return to pre-dose levels” value in data set [1] (highest dose (100 mg·kg^−1 i.v.)) was not above 10 min. Further, the “maximum decrease in MAP” value in data set [1] (highest dose (100 mg·kg^−1 i.v.), for the 2 min following administration) was found to be 19±4 mm Hg. The “MAP and HR during infusion” value in data set [1] (i.v. hourly increasing doses, all doses except the highest, diabetic and nondiabetic rats) is given as “no effect”. In addition, the “effect of drug on cardiac content of iron and copper” value in data set [2] (acute i.v. administration) is “nor any effect of drug”. The “content of copper in cardiac tissue, diabetic versus nondiabetic animals” value in data set [2] (animals receiving saline or trientine) is “no significant difference”. Moreover, in data set [2] (diabetic), the “Cu content of heart tissue” value amounted to 24.7 ± 1.5 μg · g^−1 dry tissue and the “Fe content of heart tissue” value was found to be 186 ± 46 μg · g^−1 dry tissue. Also, in data set [2] (nondiabetic), the “Cu content of heart tissue” value turned out to be 27.1 ± 1.0 μg · g^−1 dry tissue and the “Fe content of heart tissue” value is on record as 235 ± 39 μg · g^−1 dry tissue. In data set [3] (setting [4]), the Heart weight is reported as 1.18 ± 0.24 g, the “Heart weight (g)/BW (g)” value was 0.0041 ± 0.0005^, the “Left Ventricular wall thickness” value was determined as 3.79 ± 0.52 mm and the “Left Ventricular wall thickness per BW” value was 0.0127 ± 0.0027^ (mm)/(g). Moreover, in data set [3] (setting [5]), the Heart weight amounted to 1.58 ± 0.05 g, the “Heart weight (g)/BW (g)” value is reported as 0.0028 ± 0.0001, the “Left Ventricular wall thickness” value was found to be 4.03 ± 0.1 mm and the “Left Ventricular wall thickness per BW” value is 0.0072 ± 0.0003 (mm)/(g). Besides, the “heart:body weight ratio, treated versus untreated diabetic animals” value in data set [3] (diabetic animals, trientine weeks 7-13) is “small but significant improvement”. The “ventricular wall thickness:bodyweight ratio, treated versus non-treated diabetics” value in data set [3] (did not reach significance) is recorded as “trend toward improved”. In addition, the “blood glucose profile, treated versus untreated comparison group” value in data set [3] (either treated group (STZ/D7, Sham/D7), p=ns) is recorded as “no difference”.
